Molecular target: T1, BmfaldDH (Burkholderia multivorans, UniProt A0A0H3KP42)
T1 construct: gene fdhA2; pET28a, E. coli BL21(DE3), Ni-NTA purified (His-tagged)
T1 sequence (A0A0H3KP42 1-398): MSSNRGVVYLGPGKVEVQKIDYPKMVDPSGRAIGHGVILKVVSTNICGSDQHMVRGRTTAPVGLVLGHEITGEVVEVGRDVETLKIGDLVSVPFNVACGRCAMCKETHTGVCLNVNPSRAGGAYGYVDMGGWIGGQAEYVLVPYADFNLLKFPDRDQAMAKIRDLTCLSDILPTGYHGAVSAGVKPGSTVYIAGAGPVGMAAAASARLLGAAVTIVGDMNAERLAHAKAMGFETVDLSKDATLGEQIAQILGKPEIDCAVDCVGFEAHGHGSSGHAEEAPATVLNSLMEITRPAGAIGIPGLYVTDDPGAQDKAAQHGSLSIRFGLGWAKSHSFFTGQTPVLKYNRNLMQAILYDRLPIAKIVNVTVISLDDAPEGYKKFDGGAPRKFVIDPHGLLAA
Experiment: isothermal titration calorimetry
Type: binding

| SMILES | thermodynamic data |
| --- | --- |
| NC(=O)C1=CN([C@@H]2O[C@H](COP(=O)(O)OP(=O)(O)OC[C@H]3O[C@@H](n4cnc5c(N)ncnc54)[C@H](O)[C@@H]3O)[C@@H](O)[C@H]2O)C=CC1 [NADH] | evaluating the interaction of BmfaldDH with formate and NADH |
| O=CO [formate] | isothermal titration calorimetry (ITC) to measure the thermodynamic data |

Reference: publication PMC10963751, “Solar-driven sugar production directly from CO2 via a customizable electrocatalytic–biocatalytic flow system” (Nature Communications, 2024)
